Measurements as given in publication PMC5298231, “The Malaria Parasite's Lactate Transporter PfFNT Is the Target of Antiplasmodial Compounds Identified in Whole Cell Phenotypic Screens” (PLoS Pathogens, 2017).

Tested on: erythrocytes infected with 3D7 trophozoites
Assay type: cell-based, Plasmodium falciparum

COc1ccc2c(c1)OC(O)(C(F)(F)C(F)(F)F)CC2=O (stereo not shown) [MMV007839]
NADP+, Average (3hr): -0.3346
Ornithine, Average (3hr): -0.1015
Orotate, Average (3hr): -1.466
Orotidine 5-Phosphate, Average (3hr): -1.489
Orotidine, Average (3hr): -1.057
PAEF, Average (3hr): -1.307
PD, Average (3hr): 0.2119
PDAV, Average (3hr): 0.3685
PE, Average (3hr): 0.9141
PEE, Average (3hr): -0.2135
PHF, Average (3hr): 0.05129
PPVQ, Average (3hr): -0.3492
PVNF, Average (3hr): -0.8559
PVQ, Average (3hr): 0.3164
PVQA, Average (3hr): -1.408
Pantothenate, Average (3hr): -0.2954
Phenylalanine, Average (3hr): -0.1326
Phosphoenolpyruvate, Average (3hr): 0.2604
Pipecolate, Average (3hr): 0.1041
Proline, Average (3hr): -0.09895
Pyridoxine, Average (3hr): -0.07403
Pyruvate, Average (3hr): 1.858
Ribose-5-Phosphate, Average (3hr): 0.8813
S-Adenosyl-L-homocysteine, Average (3hr): -0.314
SDGLA, Average (3hr): -0.3844
SFGD, Average (3hr): -0.2955
Sedoheptulose-1/7-Phosphate, Average (3hr): 0.2199
Serine, Average (3hr): 0.166
Succinate Semialdehyde, Average (3hr): -0.7119
Succinate, Average (3hr): -0.2462
TNVK, Average (3hr): -1.745
Threonine, Average (3hr): 0.01502
Tryptophan, Average (3hr): -0.2359
Tyrosine, Average (3hr): -0.01653
UDP, Average (3hr): -0.7159
UDP-N-acetyl-D-glucosamine, Average (3hr): 0.05247
UDP-glucose, Average (3hr): -0.07837
UMP, Average (3hr): -0.2624
Uracil, Average (3hr): -0.6081
Valine, Average (3hr): -0.194
Xanthine, Average (3hr): -0.464
dADP, Average (3hr): -1.193
dATP, Average (3hr): -0.03116
dCDP, Average (3hr): 0.3315
dGMP, Average (3hr): 0.1661
dTMP, Average (3hr): 0.1316
dTTP, Average (3hr): -0.08156
dUMP, Average (3hr): 1.365
myo-Inositol, Average (3hr): -0.258
sn-Glycerol 3-Phosphate, Average (3hr): 1.559
sn-glycero-3-Phospho-1-inositol, Average (3hr): 0.1698
1-3 (2-3)-Bisphopshateglycerate, Average (6hr): 0.3636
2-Hydroxyglutarate, Average (6hr): -0.3824
2-Ketoglutarate, Average (6hr): -0.4713
3-Phoshoglycerate, Average (6hr): 0.02516
3-Phospho-serine, Average (6hr): -0.6364
4-Aminobutanoate, Average (6hr): 1.092
5-Phosphoribosyl-Pyrophosphate, Average (6hr): 0.556
6-Phosphogluconate, Average (6hr): -0.3794
ADP, Average (6hr): -0.3027
AMP, Average (6hr): -0.04039
ATLS, Average (6hr): -0.1601
ATP, Average (6hr): -0.3608
Acetyl-CoA, Average (6hr): -0.9886
Acetyl-L-alanine, Average (6hr): -0.3969
Adenine, Average (6hr): -0.7079
Arginine, Average (6hr): 0.2024
Asparagine, Average (6hr): 0.205
Aspartate, Average (6hr): -0.08675
CDP, Average (6hr): -0.2824
CDP-ethanolamine, Average (6hr): -0.09908
CMP, Average (6hr): 0.2839
CTP, Average (6hr): -0.5655
Cholesteryl sulfate, Average (6hr): -0.1903
Citrate, Average (6hr): -0.1627
CoA, Average (6hr): -0.6499
Cyclic AMP, Average (6hr): -1.349
Cytidine, Average (6hr): 0.1751
DALT, Average (6hr): 0.7209
DEVG, Average (6hr): -0.06216
DGLA, Average (6hr): 0.8365
DLS, Average (6hr): -0.1236
Deoxycytidine, Average (6hr): 1.626
Dihydroorotate, Average (6hr): -1.004
ESFG, Average (6hr): 0.5044
EVGG, Average (6hr): -0.2203
Erythrose 4-Phosphate, Average (6hr): -0.7036
FAD, Average (6hr): -0.616
FMN, Average (6hr): -0.6137
Farnesyl diphosphate, Average (6hr): -0.2783
Folate, Average (6hr): -0.4942
Fructose-1-6-Bisphosphate, Average (6hr): 0.3974
Fructose-6-Phosphate, Average (6hr): -0.1081
GDP, Average (6hr): -0.8963
GDP-mannose, Average (6hr): -1.076
GMP, Average (6hr): -0.8795
GTP, Average (6hr): -0.6956
Geranylgeranyl pyrophosphate, Average (6hr): -0.7121
Glucono-1-4-Lactone, Average (6hr): 2.219
Glucose-6-Phosphate, Average (6hr): -0.5083
Glutamate, Average (6hr): -0.02563
Glutamine, Average (6hr): 1.089
Glutathione Disulfide, Average (6hr): -0.1925
Glutathione, Average (6hr): -0.4326
Glyceraldehyde 3-Phosphate, Average (6hr): -1.148
Glycerone Phosphate, Average (6hr): -0.3794
